Reference: patent US9040524B2, “Antifungal 5,6-dihydro-4H-pyrrolo[1,2-a][1,4]-benzodiazepines and 6H-pyrrolo[1,2-a][1,4]benzodiazepines substituted with bicycle benzene derivatives” (JANSSEN PHARMACEUTICA NV, priority 2010, dated 2015)

Experiments:
Cryptococcus neoformans = experiment: Antifungal activity in vitro, resazurin growth inhibition screen: Cryptococcus neoformans; format: cell-based; conditions: Cryptococcus neoformans B66663; read-out: Inf. F pIC50 (converted)
Procedure, shortened: (§1)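 Growth inhibition is measured with resazurin against untreated fungal culture (100%) and medium blank (0%). Isolates thawed from cryostocks give 10^3 cfu per well in RPMI-MOPS. The dose range peaks at 64 μM in test.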

Trichophyton rubrum = experiment: Antifungal activity in vitro, resazurin growth inhibition screen: Trichophyton rubrum; format: cell-based; conditions: Trichophyton rubrum B68183; read-out: Inf. C pIC50 (converted)
Procedure, shortened: as §1

Rhizopus oryzae = experiment: Antifungal activity in vitro, resazurin growth inhibition screen: Rhizopus oryzae; format: cell-based; conditions: Rhizopus arrhizus; Rhizopus oryzae IHEM5223; read-out: Inf. J pIC50 (converted)
Experimental: (§2) The standard susceptibility screen was performed in 96-well plates (U-bottom, Greiner Bio-One). Serial dilutions (2-fold or 4-fold) of 20 mM compound stock solutions were made in 100% DMSO, followed by an intermediate dilution step in water. These serial dilutions (10 μl) were then spotted onto test-plates that could be stored in the dark at 4° C. for a maximum period of 2 weeks. An adequate broad dose-range was included with 64 μM as the highest in-test concentration. […] The different fungal species/isolates (Table 3a) were cryopreserved and 1/1000 diluted in medium just prior to use. A standard inoculum of 200 μl containing 10^3 colony-forming unit (cfu) was then added to each well. A positive control (100% growth=fungal culture without antifungal) and a negative control (0% growth=RPMI-MOPS medium) were included on each plate.

[1] = system: Trichophyton mentagrophytes; experiment: Antifungal activity in vitro, resazurin growth inhibition screen: Trichophyton mentagrophytes; format: cell-based; conditions: Trichophyton mentagrophytes B70554; read-out: Inf. G pIC50 (converted)
Procedure, shortened: as §1

Candida parapsilosis = experiment: Antifungal activity in vitro, resazurin growth inhibition screen: Candida parapsilosis; format: cell-based; conditions: Lodderomyces parapsilosis; Candida parapsilosis B66126; read-out: Inf. D pIC50 (converted)
Procedure, shortened: as §1

Microsporum canis = experiment: Antifungal activity in vitro, resazurin growth inhibition screen: Microsporum canis; format: cell-based; conditions: Microsporum canis B68128; read-out: Inf. B pIC50 (converted)
Procedure, shortened: as §1

Scedosporium apiospermum = experiment: Antifungal activity in vitro, resazurin growth inhibition screen: Scedosporium apiospermum; format: cell-based; conditions: Scedosporium apiospermum IHEM3817; read-out: Inf. H pIC50 (converted)
Experimental: as §2

Scedosporium prolificans = experiment: Antifungal activity in vitro, resazurin growth inhibition screen: Scedosporium prolificans; format: cell-based; conditions: Lomentospora prolificans; Scedosporium prolificans IHEM21157; read-out: Inf. I pIC50 (converted)
Experimental: as §2

Rhizomucor miehei = experiment: Antifungal activity in vitro, resazurin growth inhibition screen: Rhizomucor miehei; format: cell-based; conditions: Rhizomucor miehei IHEM13391; read-out: Inf. K pIC50 (converted)
Experimental: as §2

Aspergillus fumigatus = experiment: Antifungal activity in vitro, resazurin growth inhibition screen: Aspergillus fumigatus; format: cell-based; conditions: Aspergillus fumigatus B42928; read-out: Inf. E pIC50 (converted)
Procedure, shortened: as §1

Sporothrix schenkii = experiment: Antifungal activity in vitro, resazurin growth inhibition screen: Sporothrix schenkii; format: cell-based; conditions: Sporothrix schenkii B62482; read-out: Inf. A pIC50 (converted)
Procedure, shortened: as §1

Compound	IC50 (Cryptococcus neoformans)	IC50 (Trichophyton rubrum)	melting point	IC50 (Rhizopus oryzae)	IC50 [1]	IC50 (Candida parapsilosis)	IC50 (Microsporum canis)	IC50 (Scedosporium apiospermum)	IC50 (Scedosporium prolificans)	IC50 (Rhizomucor miehei)	IC50 (Aspergillus fumigatus)	IC50 (Sporothrix schenkii)
Clc1cccc2c1CN=C(c1ccc3c(c1)CCO3)c1cccn1-2 [Compound 35, 7-chloro-4-(2,3-dihydro-5-benzofuranyl)-6H-pyrrolo[1,2-a][1,4]benzodiazepine]	5010 nM	437 nM	206.4 to 208.9 °C	> 64600 nM	794 nM	2000 nM	1000 nM	38900 nM	1290 nM	53700 nM	2000 nM	14100 nM
Clc1cccc2c1CN=C(c1ccc3c(c1)OCC3)c1cccn1-2 [Compound 36, 7-chloro-4-(2,3-dihydro-6-benzofuranyl)-6H-pyrrolo[1,2-a][1,4]benzodiazepine]	50100 nM	132 nM	180.5 to 181.2 °C	> 64600 nM	240 nM	20900 nM	676 nM	2820 nM	1200 nM	> 64600 nM	2000 nM	12900 nM
Clc1cc(Cl)c2c(c1)-n1cccc1C(c1ccc3c(c1)CCO3)=NC2 [Compound 45, 7,9-dichloro-4-(2,3-dihydro-5-benzofuranyl)-6H-pyrrolo[1,2-a][1,4]benzodiazepine]	1000 nM	331 nM	190 to 191.8 °C	> 64600 nM	331 nM	7940 nM	257 nM	32400 nM	6170 nM	> 64600 nM	1000 nM	3020 nM
O=C1CCc2cc(C3=NCc4c(Cl)cccc4-n4cccc43)ccc21 [Compound 56, 5-(7-chloro-6H-pyrrolo[1,2-a][1,4]benzodiazepin-4-yl)-2,3-dihydro-1H-inden-1-one]	1320 nM	182 nM	226.7 to 227.6 °C	> 64600 nM	562 nM	2880 nM	170 nM	447 nM	110 nM	4790 nM	363 nM	2240 nM
O=C1CCCc2cc(C3=NCc4c(Cl)cccc4-n4cccc43)ccc21 [Compound 58, 6-(7-chloro-6H-pyrrolo[1,2-a][1,4]benzodiazepin-4-yl)-3,4-dihydro-1(2H)-naphthalenone]	417 nM	204 nM	209.8 to 210.7 °C	49000 nM	324 nM	> 64600 nM	166 nM	5890 nM	9330 nM	6920 nM	135 nM	2140 nM
O=C1OCc2ccc(C3=NCc4c(F)cccc4-n4cccc43)cc21 [Compound 63, 6-(7-fluoro-6H-pyrrolo[1,2-a][1,4]benzodiazepin-4-yl)-1(3H)-isobenzofuranone]	> 64600 nM	7410 nM	224.6 to 246 °C	> 64600 nM	> 64600 nM	> 64600 nM	55000 nM	933 nM	1580 nM	> 64600 nM	> 64600 nM	> 64600 nM
O=C1OCc2cc(C3=NCc4c(Cl)cccc4-n4cccc43)ccc21 [Compound 65, 5-(7-chloro-6H-pyrrolo[1,2-a][1,4]benzodiazepin-4-yl)-1(3H)-isobenzofuranone]	10200 nM	1820 nM	251.2 to 253 °C	> 64600 nM	1910 nM	5130 nM	2040 nM	759 nM	589 nM	> 64600 nM	372 nM	7760 nM
FC1(F)CCc2cc(C3=NCc4c(Cl)cccc4-n4cccc43)ccc2O1 [Compound 69, 7-chloro-4-(2,2-difluoro-3,4-dihydro-2H-1-benzopyran-6-yl)-6H-pyrrolo[1,2-a]-[1,4]benzodiazepine]	95.5 nM	123 nM	199.7 to 201.2 °C	1200 nM	380 nM	708 nM	129 nM	229 nM	708 nM	468 nM	129 nM	1050 nM
Cn1c(=O)oc2ccc(C3=NCc4c(Cl)cccc4-n4cccc43)cc21 [Compound 80, 5-(7-chloro-6H-pyrrolo[1,2-a][1,4]benzodiazepin-4-yl)-3-methyl-2(3H)-benzoxazolone]	> 64600 nM	1150 nM	218.6 to 221 °C	> 64600 nM	5370 nM	22400 nM	1580 nM	56200 nM	22400 nM	> 64600 nM	562 nM	9120 nM
Fc1cc(Cl)c2c(c1)-n1cccc1C(c1ccc3c(c1)CCC3(F)F)=NC2 [Compound 88, 7-chloro-4-(1,1-difluoro-2,3-dihydro-1H-inden-5-yl)-9-fluoro-6H-pyrrolo[1,2-a]-[1,4]benzodiazepine]	407 nM	447 nM	170.2 to 171.8 °C	> 64600 nM	871 nM	> 64600 nM	537 nM	170 nM	2570 nM	> 64600 nM	417 nM	53700 nM
